# According to patent US20240009203A1, “COMPOSITIONS AND METHODS FOR TREATING ALZHEIMER'S DISEASE” (Cedars-Sinai Medical Center, priority 2020, published 2024):
# Experiments:
# BDNF = BDNF expression in hippocampus; format: in vivo; settings: dentate gyrus and other hippocampal regions, 18-mo-old AD-Tg mice, single ETP69 injection (FIG. 22)
# Protocol: (§1) Expression of VGF, BDNF, and NCAM was analyzed in 18-month AD+ mice following a single ETP69 injection. Representative images are depicted in FIG. 22.
# ADtg mice [1] = assay: Fear conditioning test; format: in vivo
# Protocol: (§2) Wildtype and ADtg mice (18 months, males and females) were treated with ETP69 or vehicle (DMSO-saline) to test the effects of ETP69 in improving cognition in a mouse model of Alzheimer's disease. On day 1, mice were treated with an injection of 10 mg/kg ETP69 of vehicle. Then starting on day 2, mice were tested in various behavioral tests, including Y-maze, visual test alternation, Open Field-Barnes Maze, and/or fear conditioning. On either day 4 or day 19 mice were sacrificed, and tissues analyzed for histone trimethylation levels, A-beta levels, immunohistochemistry (GFAP, IGF1), Spine count (Golgi-Cox staining), —Neurotrophic support and synaptic markers.
# The results of the fear conditioning test indicate spatial memory.
# (§3) The effects of single and repeated ETP69 injections in mice were tested. The experimental timeline is depicted in FIG. 8. Three parallel injection conditions were tested: a single ETP69 condition, a boosted ETP69 injection, and repeated ETP69 injections, as depicted in Table 2. The single injection mice received one injection of ETP69 or DMSO at Day 0. The mice that received a boosted injection received one injection of ETP69 or DMSO at day 0 and one injection at day 9. The mice that received repeated injections received 11 injections of ETP69 or DMSO at day 0 or day 9. Both wildtype and AD model (APP/PS1-transgenic) mice were tested.
# (§4) The effects of ETP69 injections in 14 month old mice was tested. Wildtype mice were divided into 2 treatment groups, mice that received an ETP69 injection (n=10) and mice that received a DMSO injection (N=10). AD+ mice were divided into 2 treatment groups, mice that received an ETP69 injection (n=8) and mice that received a DMSO injection (N=7). The experimental protocol is depicted in FIG. 15.
# The fear conditioning test was used to indicate spatial memory.
# VGF = VGF expression in hippocampus; format: in vivo; settings: dentate gyrus and other hippocampal regions, 18-mo-old AD-Tg mice, single ETP69 injection (FIG. 22)
# Protocol: as §1
# ADtg mice [2] = assay: Open Field-Barnes Maze test; format: in vivo
# Protocol: as §2
# The results of the Open Field-Barnes Maze test indicate hippocampal-based spatial learning and memory.
# as §3
# The results of the Open Field Barnes Maze test indicate hippocampal-based spatial memory and learned. […] A comparison of results of single (S), boost (B) and repeated (R) injections is depicted in FIG. 11D-11H.
# (§5) 18 month old wildtype and AD+ mice were administered an oral dose of 50 mg/kg ETP69 or oraB once a day for 4 weeks. The experimental protocol is depicted in FIG. 23.
# On days 4-7 mice were tested on the training phase of the Barnes Maze (FIG. 27A). On day 10, mice were tested on the retention phase. On days 11-12, mice were tested on the reversal phase. Results are depicted in FIG. 27B-27E.
# GFAP = assay: GFAP+ astrogliosis (immunohistochemistry, western blot); format: in vivo, mice
# From the text: (§6) 18 month old AD+ mice brains were stained for neuronal H3K9me3 and DAPI. FIG. 14A is a representative image of the H3K9me3 signal across cortical layers. FIG. 14B is a representative image comparing ETP69 treated and DMSO control brains. […] FIG. 14D depicts immunohistochemistry of 6E10+ amyloid-beta plaques and GFAP+ astrogliosis in coronal sections of AD+ mice treated with ETP69 or DMSO.
# ADtg mice [3] = assay: Visual X maze (visual stimuli X-maze), color mode; format: in vivo
# Protocol: as §2
# The results of the Koronyo's Visual X Maze (color) indicate visual-cognitive memory and learning.
# as §3
# (§7) FIG. 10A-10D depicts the results of the mice on the color mode of the visual stimuli X-maze test. […] FIG. 10E-10F depict the results of the contrast mode of the visual stimuli X-maze test.
# as §4
# Mice were tested for visual-cognitive memory and learning using a visual X maze.
# as §5
# On day 1, the mice were tested in the open field test as depicted in FIG. 24A. Rearing and total locomotor activity were measured in mice administered oraB and ETP69 (FIG. 24B-24G). On day 2, mice were tested in the color visual-stimuli X-maze. […] On day 3, mice were tested in the contrast visual-stimuli X-maze. Results are depicted in FIG. 26A-26E.
# BDNF pathway = assay: Ingenuity pathway analysis of proteome data, BDNF pathway; design: species or system mice; settings: FIG. 19B, p<0.0001
# From the text: (§8) FIGS. 19A, 19B, and 20 include global proteome data from a mass spectrometry analysis. […] Some of these proteins, such as HPX, may be involved in anti-oxidative-stress or anti-inflammatory pathways.
# H3K9me3 = H3K9me3 brain staining and quantification; format: in vivo, mice
# From the text: as §6
# dendritic spines = assay: Golgi-Cox staining of brain sections (dendritic spines); format: in vivo, mice
# Protocol: as §2
# […] which bind to proteins in the neuron are randomly formed during the impregnation, then transformed to black mercuric sulfide deposits upon alkali treatment (Ramón-Moliner, 1970; Špaček, 1989; Rosoklija et al., 2014). The architecture of the impregnated neuron, including cell somas, axons, dendrites and spines, could be easily visualized. It is expected that qualitative observations by these measures of brains from ADtg mice treated with ETP69 will show higher spine density as compared to brains of DMSO-injected control ADtg mice. FIG. 7A-7D include Golgi-Cox stain images of whole neurons and their dendritic projections.
# The right brain hemispheres of 18 month old mice were stained with the Golgi-Cox method to detect the cytoarchitecture and morphology of neurons. FIG. 13A depicts representative images of the cingulate cortex of mice administered DMSO or ETP69 and FIG. 13B depicts a representative image of the hippocampal area of a mouse treated with ETP69.
# ADtg mice [4] = assay: Y-maze test; format: in vivo
# [5] = test system: cerebral macrophages, microglia, and astrocytes; assay: Effects on cerebral inflammatory cells (FIG. 21A-21L); format: in vivo; settings: AD+ mice (FIG. 21A-21L)
# From the text: These phagocytic inflammatory cells may be involved in immune activation and clearing toxic Aβ. Restoring a young phenotype may explain reduced neuroinflammation and Aβ plaques in the ETP69 treated AD+ mice.
# Iba1 = Iba1 immunohistochemistry; format: in vivo; settings: 14 month old AD+ mice, compared to untreated AD+ mice (FIG. 18E)
# [6] = test system: 6E10+ amyloid-beta plaques; assay: Immunohistochemistry of 6E10+ amyloid-beta plaques; format: in vivo, mice
# From the text: as §6, with “FIG.” for “18 month old AD+ mice brains were stained for neuronal H3K9me3 and DAPI. FIG.”
# global proteome = assay: Global proteome mass spectrometry analysis of brains; format: in vivo, mice
# From the text: Overall, the experiments in these examples from multiple cohorts of 14- and 18-month-old murine models of AD (AD+ mice) and age/gender-matched control mice provide support that by inhibiting the enzyme SUV39H1 that regulates H3K9me3 via ETP69 compound (AKA NT1721), the chromatin state of subjects may be altered, and memory and synaptic plasticity may be restored in aging and AD brains. The therapeutic usefulness of ETP69 has been shown in the experiments described in these examples, in both aged WT mice and the well-established transgenic mouse models of AD (APPSWE/PS1ΔE9, AD+ mice), following a single (S), a boost (B), or once a week repeated (R) i.p. injections of ETP69. […] Additionally, in investigation of whole proteome profiles by mass spectrometry identified some mechanisms of action for ETP69 in the aged WT and AD+ mice.
# as §8
# AD+ mice = assay: Visual stimuli X-maze, contrast mode; format: in vivo; settings: 18 mo, i.p. 10 mg/kg, contrast mode (FIG. 10E-10F)
# Protocol: as §3, §7
# [7] = humans; cited from earlier work
# [8] = test system: proteins related to learning, cognition, conditioning, anxiety; assay: Ingenuity analysis of behavioral pathways; design: species or system mice; settings: FIG. 20
# From the text: as §8
# [9] = ADtg mice, 18 months, injection of 10 mg/kg, compared with vehicle treated mice (FIG. 5A-5C)
# [10] = AD+ mice, 18 mo, i.p. 10 mg/kg, color mode (FIG. 10A-10D)
# [11] = ADtg mice, 18 months, injection of 10 mg/kg, compared with vehicle treated mice (FIG. 4A-4J)
# [12] = cingulate cortex and hippocampus, 18 month old mice (FIG. 13C-13D)
structure (smiles),measurement,setting,value
"CN1C(=O)[C@@]23C[C@](C)(C#N)[C@H](c4ccc5c(c4)OCO5)N2C(=O)[C@]1(C)SS3 (racemic) [ETP69, Rac-(3S,6S,7S,8aS)-6-(benzo[d][1,3]dioxol-5-yl)-2,3,7-trimethyl-1,4-dioxohexahydro-6H-3,8a-epidithiopyrrolo[1,2-a]pyrazine-7-carbonitrile]",BDNF expression,BDNF,Marked increases
same,freezing time,"ADtg mice [1]; 14 month old AD+ mice, ETP69 injection (FIG. 17A-17B)",increase
same,freezing time,"ADtg mice [1]; AD+ mice, 18 mo, i.p. 10 mg/kg (FIG. 12)",increased
same,freezing time,"ADtg mice [1]; ADtg mice, 18 months, injection of 10 mg/kg (FIG. 6A-6B)",increased
same,VGF expression,VGF,Marked increases
same,memory retention,"ADtg mice [2]; AD+ mice, 18 mo, i.p. 10 mg/kg, compared to AD+ mice treated with DMSO (FIG. 11A-11C)",improvement
same,incorrect entries,ADtg mice [2]; [9],fewer
same,latency,ADtg mice [2]; [9],reduced
same,memory retention,ADtg mice [2]; [9],improvement
same,reversal of cognitive deficits,"ADtg mice [2]; old AD-model mice (18 month), oral 50 mg/kg once a day for 4 weeks, Barnes Maze (FIG. 27B-27E)",significant reversal
same,GFAP,"GFAP; 14 month old AD+ mice, compared to untreated AD+ mice (FIG. 18D)",decrease
same,decrease of GFAP irradiance,"GFAP; 18 month old AD+ mice, cingulate cortex (FIG. 14F)",58%
same,alternation,"ADtg mice [3]; 14 month old AD+ mice, ETP69 injection, compared to untreated mice, mode not stated (FIG. 16A-16D)",improvements
same,bidirectional movement,ADtg mice [3]; [10],significant increase
same,percent alternation,ADtg mice [3]; [10],significant increase
same,color bidirectional,ADtg mice [3]; [11],improvements
same,percent spontaneous alternation,ADtg mice [3]; [11],improvements
same,reversing cognitive dysfunction,"ADtg mice [3]; old mice (18 month), oral 50 mg/kg in oraB once a day for 4 weeks, color visual-stimuli X-maze (FIG. 25A-25E)",beneficial effects
same,BDNF pathway activation Z-score,BDNF pathway,2.359
same,H3K9me3,"H3K9me3; 14 month old AD+ mice, compared to untreated AD+ mice (FIG. 18B)",decrease
same,H3K9me3 staining,"H3K9me3; 18 month old AD+ mice, cortex and hippocampus (FIG. 14C)",significant decrease
same,association of spine preservation with errors in the Barnes maze test,"dendritic spines; 18 month old mice, correlation (FIG. 13G)",reduced errors
same,ratio of thin spines to all spines,"dendritic spines; AD+ mice, 18 month, compared to AD+ mice administered DMSO alone (FIG. 13E-13F)",significant increase
same,dendritic spines,dendritic spines; [12],increase
same,thin (immature) spines,dendritic spines; [12],increase
same,percent alternation,"ADtg mice [4]; AD+ mice, 18 mo, i.p. 10 mg/kg, vs AD+ DMSO (FIG. 9B)",significant increase
same,percent spontaneous alternation,"ADtg mice [4]; ADtg mice, 18 months, injection of 10 mg/kg ETP69, compared with vehicle treated mice (FIG. 3A-3B)",improvement
same,number of total entries,"ADtg mice [4]; both wildtype and AD+ mice, 18 mo, i.p. 10 mg/kg in DMSO, single/boost/repeated (FIG. 9A), indicates decreased locomotor activity",decreased
same,"effects on cerebral macrophages, microglia, and astrocytes",[5],dramatic effects
same,Iba1,Iba1,decrease
same,6E10,"[6]; 14 month old AD+ mice, compared to untreated AD+ mice (FIG. 18C)",decrease
same,decrease in the amount of 6E10 amyloid plaques,[6]; brains of 18 month old AD+ mice (FIG. 14E),42%
same,"proteins upregulated, AD+ mice treated with ETP69 compared to untreated AD+ mice","global proteome; brains, FIG. 19A","VAV3, CORO2A and HPX"
same,most up-regulated proteins following ETP69 administration,"global proteome; whole proteome profiles by mass spectrometry, aged WT and AD+ mice",VGF and HP/HPX
same,percent alternation,AD+ mice,significant increase
same,safety and tolerability,[7],generally safe and tolerable
same,"proteins related to conditioning, anxiety, and other behaviors",[8],inhibition
same,proteins related to learning and cognition,[8],activation
